# Measured values from paper PMC5218480 (PLoS ONE, 2017).
# System: MV-4-11 cells
# Experiment: Gene expression microarray analysis (Affymetrix PrimeView) and GSEA
# Assay type: cell-based, human
# Parameters: RFU PODN (11730768_x_at) / Fold change /veh PODN (11730768_x_at) / RFU LINC00158 (11744669_a_at) / Fold change /veh LINC00158 (11744669_a_at) / RFU DUSP10 (11751237_a_at) / Fold change /veh DUSP10 (11751237_a_at) / RFU ID3 (11757404_x_at) / Fold change /veh ID3 (11757404_x_at) / RFU PLEKHG5 (11737974_s_at) / Fold change /veh PLEKHG5 (11737974_s_at) / RFU LRRC4B (11730491_at) / Fold change /veh LRRC4B (11730491_at) / RFU GIMAP4 (11747438_a_at) / Fold change /veh GIMAP4 (11747438_a_at) / RFU KRT8 (11758183_x_at) / Fold change /veh KRT8 (11758183_x_at) / RFU CNN1 (11734310_a_at) / Fold change /veh CNN1 (11734310_a_at) / RFU VPS37D (11726825_at) / Fold change /veh VPS37D (11726825_at) / RFU C10orf10 (11716522_x_at) / Fold change /veh C10orf10 (11716522_x_at) / RFU KIR2DL2 /// KIR2DL4 /// KIR2DL5A /// KIR2DL5B /// KIR2DS1 /// KIR2DS2 /// KIR2DS3 /// KIR2DS4 /// KIR3DL3 /// KIR3DL3 /// KIR3DS1 (11738374_at) / Fold change /veh KIR2DL2 /// KIR2DL4 /// KIR2DL5A /// KIR2DL5B /// KIR2DS1 /// KIR2DS2 /// KIR2DS3 /// KIR2DS4 /// KIR3DL3 /// KIR3DL3 /// KIR3DS1 (11738374_at) / RFU C1QL1 (11718748_at) / Fold change /veh C1QL1 (11718748_at) / RFU TMPRSS4 (11747572_a_at) / Fold change /veh TMPRSS4 (11747572_a_at) / RFU HAMP (11756126_x_at) / Fold change /veh HAMP (11756126_x_at) / RFU RNFT2 (11725882_a_at) / Fold change /veh RNFT2 (11725882_a_at) / RFU NR4A2 (11747474_a_at) / Fold change /veh NR4A2 (11747474_a_at) / RFU ABCC12 (11746883_a_at) / Fold change /veh ABCC12 (11746883_a_at) / RFU TMEM136 (11760407_x_at) / Fold change /veh TMEM136 (11760407_x_at) / RFU CLDN22 /// WWC2 (11732394_at) / Fold change /veh CLDN22 /// WWC2 (11732394_at) / RFU HLA-DPB1 (11760878_x_at) / Fold change /veh HLA-DPB1 (11760878_x_at) / RFU SPINT1 (11716480_a_at) / Fold change /veh SPINT1 (11716480_a_at) / RFU GAP43 (11754022_s_at) / Fold change /veh GAP43 (11754022_s_at) / RFU A4GNT (11735810_at) / Fold change /veh A4GNT (11735810_at) / RFU PRB3 (11715151_x_at) / Fold change /veh PRB3 (11715151_x_at) / RFU TUBB4B (11761932_at) / Fold change /veh TUBB4B (11761932_at) / RFU CAPN14 (11732068_a_at) / Fold change /veh CAPN14 (11732068_a_at) / RFU TMCC2 (11721928_a_at) / Fold change /veh TMCC2 (11721928_a_at) / RFU IRGQ (11745062_a_at) / Fold change /veh IRGQ (11745062_a_at) / RFU FAM174B (11720279_a_at) / Fold change /veh FAM174B (11720279_a_at) / RFU TMPRSS4 (11748680_a_at) / Fold change /veh TMPRSS4 (11748680_a_at) / RFU FAM212B (11763350_a_at) / Fold change /veh FAM212B (11763350_a_at) / RFU PLEKHG5 (11743358_a_at) / Fold change /veh PLEKHG5 (11743358_a_at) / RFU ZSCAN30 (11745921_a_at) / Fold change /veh ZSCAN30 (11745921_a_at) / RFU CMKLR1 (11741424_a_at) / Fold change /veh CMKLR1 (11741424_a_at) / RFU LOC101060620 /// MAPK8IP1 (11723275_at) / Fold change /veh LOC101060620 /// MAPK8IP1 (11723275_at) / RFU SPTSSB (11747773_x_at) / Fold change /veh SPTSSB (11747773_x_at) / RFU PRSS12 (11739890_at) / Fold change /veh PRSS12 (11739890_at) / RFU BIN1 (11741810_x_at) / Fold change /veh BIN1 (11741810_x_at) / RFU WNT11 (11732464_a_at) / Fold change /veh WNT11 (11732464_a_at) / RFU C10orf10 (11716521_a_at) / Fold change /veh C10orf10 (11716521_a_at) / RFU C5orf56 (11738089_at) / Fold change /veh C5orf56 (11738089_at) / RFU CYB561 (11721691_x_at) / Fold change /veh CYB561 (11721691_x_at) / RFU ANKRD19P (11752326_a_at) / Fold change /veh ANKRD19P (11752326_a_at) / RFU OR2T12 /// OR2T33 /// OR2T8 (11738714_s_at) / Fold change /veh OR2T12 /// OR2T33 /// OR2T8 (11738714_s_at) / RFU VCAN (11748164_a_at) / Fold change /veh VCAN (11748164_a_at) / RFU JSRP1 (11732532_at) / Fold change /veh JSRP1 (11732532_at) / RFU KRTAP10-11 (11738290_x_at) / Fold change /veh KRTAP10-11 (11738290_x_at) / RFU MYO3A (11730013_a_at) / Fold change /veh MYO3A (11730013_a_at) / RFU EBF3 (11725865_a_at) / Fold change /veh EBF3 (11725865_a_at) / RFU CAMK2N1 (11719241_x_at) / Fold change /veh CAMK2N1 (11719241_x_at) / RFU C5orf56 (11738088_a_at) / Fold change /veh C5orf56 (11738088_a_at) / RFU OLFML3 (11715873_a_at) / Fold change /veh OLFML3 (11715873_a_at) / RFU LOC100653217 /// NTM (11731650_a_at) / Fold change /veh LOC100653217 /// NTM (11731650_a_at) / RFU MAPK11 (11762145_a_at) / Fold change /veh MAPK11 (11762145_a_at) / RFU FIZ1 (11724087_x_at) / Fold change /veh FIZ1 (11724087_x_at) / RFU OASL (11726364_x_at) / Fold change /veh OASL (11726364_x_at) / RFU SOX15 (11748057_x_at) / Fold change /veh SOX15 (11748057_x_at) / RFU CD79A (11719716_a_at) / Fold change /veh CD79A (11719716_a_at) / RFU HIST1H1D (11736915_at) / Fold change /veh HIST1H1D (11736915_at) / RFU CASKIN2 (11723855_a_at) / Fold change /veh CASKIN2 (11723855_a_at) / RFU LOC730098 (11760151_x_at) / Fold change /veh LOC730098 (11760151_x_at) / RFU OR4N2 (11742367_at) / Fold change /veh OR4N2 (11742367_at) / RFU PRRT2 (11749266_a_at) / Fold change /veh PRRT2 (11749266_a_at) / RFU SNX32 (11753110_a_at) / Fold change /veh SNX32 (11753110_a_at) / RFU CDHR5 (11726645_a_at) / Fold change /veh CDHR5 (11726645_a_at) / RFU RCAN1 (11760418_a_at) / Fold change /veh RCAN1 (11760418_a_at) / RFU FAM167A (11723789_a_at) / Fold change /veh FAM167A (11723789_a_at) / RFU FAM26E (11764081_at) / Fold change /veh FAM26E (11764081_at) / RFU ISYNA1 (11749810_s_at) / Fold change /veh ISYNA1 (11749810_s_at) / RFU ACY1 (11761880_at) / Fold change /veh ACY1 (11761880_at) / RFU 11764098_at / Fold change /veh 11764098_at / RFU SAMD14 (11745864_x_at) / Fold change /veh SAMD14 (11745864_x_at) / RFU NPB (11741838_a_at) / Fold change /veh NPB (11741838_a_at) / RFU TMPRSS6 (11731388_a_at) / Fold change /veh TMPRSS6 (11731388_a_at) / RFU KRTAP10-2 (11738614_at) / Fold change /veh KRTAP10-2 (11738614_at) / RFU ARHGAP8 /// PRR5-ARHGAP8 (11727945_x_at) / Fold change /veh ARHGAP8 /// PRR5-ARHGAP8 (11727945_x_at) / RFU KRTAP5-7 /// NADSYN1 (11734609_at) / Fold change /veh KRTAP5-7 /// NADSYN1 (11734609_at) / RFU RASL12 (11751679_a_at) / Fold change /veh RASL12 (11751679_a_at) / RFU CDKN2B (11736163_a_at) / Fold change /veh CDKN2B (11736163_a_at) / RFU PRF1 (11729649_at) / Fold change /veh PRF1 (11729649_at) / RFU, ZNF638 /// ZNF638-IT1 / Fold change vs veh, ZNF638 /// ZNF638-IT1 / RFU, PANK3 / Fold change vs veh, PANK3 / RFU, SH3YL1 / Fold change vs veh, SH3YL1 / RFU, ZEB2 / Fold change vs veh, ZEB2 / RFU, NRIP1 / Fold change vs veh, NRIP1 / RFU, PTTG1IP / Fold change vs veh, PTTG1IP / RFU, CAPN2 / Fold change vs veh, CAPN2 / RFU, MED14 / Fold change vs veh, MED14 / RFU, SNORA58 / Fold change vs veh, SNORA58 / RFU, C1orf63 / Fold change vs veh, C1orf63 / RFU, LRRFIP1 / Fold change vs veh, LRRFIP1 / RFU, NDUFAF7 / Fold change vs veh, NDUFAF7 / RFU, SLC12A2 / Fold change vs veh, SLC12A2 / RFU, IBTK / Fold change vs veh, IBTK / RFU, ESF1 / Fold change vs veh, ESF1 / Fold change vs veh, TMEM50B / RFU, TAOK1 / Fold change vs veh, TAOK1 / RFU, ACBD3 / Fold change vs veh, ACBD3 / RFU, TMA16 / Fold change vs veh, TMA16 / RFU, RWDD3 / Fold change vs veh, RWDD3 / RFU, BCAT1 / Fold change vs veh, BCAT1 / RFU, EDEM3 / Fold change vs veh, EDEM3 / RFU, TMEM33 / Fold change vs veh, TMEM33 / RFU, WDR75 / Fold change vs veh, WDR75 / RFU, AHCTF1 / Fold change vs veh, AHCTF1 / RFU, TFRC / Fold change vs veh, TFRC / RFU, ZDHHC17 / Fold change vs veh, ZDHHC17 / RFU, NOM1 / Fold change vs veh, NOM1 / RFU, ARL8B / Fold change vs veh, ARL8B / RFU, ZBTB11 / Fold change vs veh, ZBTB11 / RFU, TAMM41 / Fold change vs veh, TAMM41 / RFU, KIAA1704 /// LOC100996395 / Fold change vs veh, KIAA1704 /// LOC100996395 / RFU, ING1 / Fold change vs veh, ING1 / RFU, TRMT61B / Fold change vs veh, TRMT61B / RFU, FUBP3 / Fold change vs veh, FUBP3 / RFU, TP53 / Fold change vs veh, TP53 / RFU, TNKS2 / Fold change vs veh, TNKS2 / RFU, ZFP14 / Fold change vs veh, ZFP14 / RFU, ACTR2 / Fold change vs veh, ACTR2 / RFU, PPP3R1 / Fold change vs veh, PPP3R1 / RFU, PIK3R1 / Fold change vs veh, PIK3R1 / RFU, HNRNPA1 / Fold change vs veh, HNRNPA1 / RFU, RNF170 / Fold change vs veh, RNF170 / RFU, ZNF28 / Fold change vs veh, ZNF28 / RFU, RNGTT / Fold change vs veh, RNGTT / RFU, OGT / Fold change vs veh, OGT / RFU, BRD1 / Fold change vs veh, BRD1 / RFU, MARS / Fold change vs veh, MARS / RFU, ZNF655 / Fold change vs veh, ZNF655 / RFU, FAHD1 / Fold change vs veh, FAHD1 / RFU, BDP1 / Fold change vs veh, BDP1 / RFU, LRRCC1 / Fold change vs veh, LRRCC1 / RFU, ARID1A / Fold change vs veh, ARID1A / RFU, ZNF146 / Fold change vs veh, ZNF146 / RFU, ZNF330 / Fold change vs veh, ZNF330 / RFU, GPN3 / Fold change vs veh, GPN3 / RFU, C9orf123 / Fold change vs veh, C9orf123 / RFU, N4BP2L2 / Fold change vs veh, N4BP2L2 / RFU, ARFIP1 / Fold change vs veh, ARFIP1 / RFU, FAM179B / Fold change vs veh, FAM179B / RFU, BCL10 / Fold change vs veh, BCL10 / RFU, UHRF1BP1L / Fold change vs veh, UHRF1BP1L / RFU, BET1 / Fold change vs veh, BET1 / RFU, CNOT2 / Fold change vs veh, CNOT2 / RFU, ZNF268 / Fold change vs veh, ZNF268 / Fold change vs veh, ZNF507 / RFU, DGCR2 / Fold change vs veh, DGCR2 / RFU, WDSUB1 / Fold change vs veh, WDSUB1 / Fold change vs veh, HSP90B1 /// MIR3652 / RFU, ADSS / Fold change vs veh, ADSS / RFU, GK / Fold change vs veh, GK / RFU, ZNF148 / Fold change vs veh, ZNF148 / RFU, TAF9 / Fold change vs veh, TAF9 / RFU, SLC1A5 / Fold change vs veh, SLC1A5 / RFU, SLMO2 / Fold change vs veh, SLMO2 / RFU, ABCC4 / Fold change vs veh, ABCC4 / RFU, LOC101060439 /// RAP1B / Fold change vs veh, LOC101060439 /// RAP1B / RFU, RFX7 / Fold change vs veh, RFX7 / RFU, GTPBP10 / Fold change vs veh, GTPBP10 / RFU, CNEP1R1 / Fold change vs veh, CNEP1R1 / RFU, BIVM-ERCC5 /// ERCC5 / Fold change vs veh, BIVM-ERCC5 /// ERCC5 / RFU, ILF3 / Fold change vs veh, ILF3 / RFU 11762660_at / Fold change /veh 11762660_at / RFU VCAN (11757783_s_at) / Fold change /veh VCAN (11757783_s_at) / RFU DDX43 (11728927_at) / Fold change /veh DDX43 (11728927_at) / RFU KRT8 (11758188_x_at) / Fold change /veh KRT8 (11758188_x_at) / RFU NKD1 (11759106_at) / Fold change /veh NKD1 (11759106_at) / RFU SRD5A1 (11742802_a_at) / Fold change /veh SRD5A1 (11742802_a_at) / RFU TPSAB1 /// TPSB2 (11721975_s_at) / Fold change /veh TPSAB1 /// TPSB2 (11721975_s_at) / RFU GSTM3 (11746129_a_at) / Fold change /veh GSTM3 (11746129_a_at) / RFU IL23R (11737362_x_at) / Fold change /veh IL23R (11737362_x_at) / RFU TMEM51 (11727254_a_at) / Fold change /veh TMEM51 (11727254_a_at) / RFU PIWIL2 (11732686_x_at) / Fold change /veh PIWIL2 (11732686_x_at) / RFU ORM1 (11744905_x_at) / Fold change /veh ORM1 (11744905_x_at) / RFU CCDC152 (11743942_at) / Fold change /veh CCDC152 (11743942_at) / RFU ECM1 (11717891_a_at) / Fold change /veh ECM1 (11717891_a_at) / RFU IL23R (11748794_a_at) / Fold change /veh IL23R (11748794_a_at) / RFU TNFAIP8L3 (11732012_x_at) / Fold change /veh TNFAIP8L3 (11732012_x_at) / RFU MBOAT4 (11741988_at) / Fold change /veh MBOAT4 (11741988_at) / RFU 11764193_at / Fold change /veh 11764193_at / RFU TMEM53 (11763286_at) / Fold change /veh TMEM53 (11763286_at) / RFU MAGEB2 (11727129_at) / Fold change /veh MAGEB2 (11727129_at) / RFU TMEM200A (11744735_a_at) / Fold change /veh TMEM200A (11744735_a_at) / RFU CCDC152 (11751479_a_at) / Fold change /veh CCDC152 (11751479_a_at) / RFU FAM211A (11726209_a_at) / Fold change /veh FAM211A (11726209_a_at) / RFU RGS16 (11746705_a_at) / Fold change /veh RGS16 (11746705_a_at) / RFU VCAN (11755009_s_at) / Fold change /veh VCAN (11755009_s_at) / RFU RHOB (11743442_s_at) / Fold change /veh RHOB (11743442_s_at) / RFU RGS16 (11720943_a_at) / Fold change /veh RGS16 (11720943_a_at) / RFU RGS16 (11720944_at) / Fold change /veh RGS16 (11720944_at) / RFU, VPS4B / Fold change vs veh, VPS4B / RFU, CREB1 / Fold change vs veh, CREB1 / RFU, DNAJC13 / Fold change vs veh, DNAJC13 / RFU, GNAQ / Fold change vs veh, GNAQ / RFU, CDK5R1 / Fold change vs veh, CDK5R1 / RFU, ZRANB3 / Fold change vs veh, ZRANB3 / RFU, CUL4A / Fold change vs veh, CUL4A / RFU, CCNY / Fold change vs veh, CCNY / RFU, UFL1 / Fold change vs veh, UFL1 / RFU, COG3 / Fold change vs veh, COG3 / RFU, DIAPH2 / Fold change vs veh, DIAPH2 / RFU, SKA2 / Fold change vs veh, SKA2 / RFU, AFF3 / Fold change vs veh, AFF3 / RFU, LMF1 / Fold change vs veh, LMF1 / RFU, IPO11 / Fold change vs veh, IPO11 / RFU, DFFB / Fold change vs veh, DFFB / RFU, FOXP1 / Fold change vs veh, FOXP1 / RFU, CARD8 / Fold change vs veh, CARD8 / RFU, STRN3 / Fold change vs veh, STRN3 / RFU, ADK / Fold change vs veh, ADK / RFU, RASSF2 / Fold change vs veh, RASSF2 / RFU, WIPF1 / Fold change vs veh, WIPF1 / RFU, LARP1B / Fold change vs veh, LARP1B / RFU, RASA1 / Fold change vs veh, RASA1 / RFU, RB1 / Fold change vs veh, RB1 / RFU, PPFIA1 / Fold change vs veh, PPFIA1 / RFU, MAT2A / Fold change vs veh, MAT2A / RFU, CCT5 / Fold change vs veh, CCT5 / RFU, WDR92 / Fold change vs veh, WDR92 / RFU, CUX1 / Fold change vs veh, CUX1 / RFU, TTC7A / Fold change vs veh, TTC7A / RFU, TMEM135 / Fold change vs veh, TMEM135 / RFU, DEPTOR / Fold change vs veh, DEPTOR / RFU, CPM / Fold change vs veh, CPM / RFU, DNAJB6 / Fold change vs veh, DNAJB6 / RFU, CACNA2D3 / Fold change vs veh, CACNA2D3 / RFU, DTX4 / Fold change vs veh, DTX4 / RFU, TFCP2 / Fold change vs veh, TFCP2 / RFU, GMCL1 /// GMCL1P1 / Fold change vs veh, GMCL1 /// GMCL1P1 / RFU, AEBP2 / Fold change vs veh, AEBP2 / RFU, SNHG1 /// SNORD22 /// SNORD25 /// SNORD26 /// SNORD27 /// SNORD28 /// SNORD29 /// SNORD31 / Fold change vs veh, SNHG1 /// SNORD22 /// SNORD25 /// SNORD26 /// SNORD27 /// SNORD28 /// SNORD29 /// SNORD31 / Fold change (Aza/veh), C12orf56 (ProbeSet 11735607_a_at) / Fold change (ACY-1035/veh), C12orf56 (ProbeSet 11735607_a_at) / Fold change (Aza/veh), FGFR1OP (ProbeSet 11751329_s_at) / Fold change (ACY-1035/veh), FGFR1OP (ProbeSet 11751329_s_at) / Fold change (Aza/veh), VPS36 (ProbeSet 11739960_a_at) / Fold change (ACY-1035/veh), VPS36 (ProbeSet 11739960_a_at) / RFU SYPL1 (11715823_x_at) / Fold change /veh SYPL1 (11715823_x_at) / RFU IGFBP7 (11715501_s_at) / Fold change /veh IGFBP7 (11715501_s_at) / RFU REEP3 (11722064_at) / Fold change /veh REEP3 (11722064_at) / RFU IGLL1 (11728026_x_at) / Fold change /veh IGLL1 (11728026_x_at): dose or concentration left out as unconfirmed
# Conditions: MV-4-11 cells, 48 hours
smiles,measurement,value
Nc1ccc(-c2cccs2)cc1NC(=O)c1ccc2c(c1)cc(C1CC1)n2CCN1CCOCC1 [ACY-1035],RFU IGLL1 (11728026_x_at),5.54 RFU
